Paper PMC8968748 (Journal of medicinal chemistry, 2021)
pIC50: −log10 of the molar value. ≈ marks a conversion by molar mass, not a printed value. Blank lines part the entries; values can stand above or below the compound they belong to.

Experiments:
U87-mIDH1 (R132H) cells = assay: Cellular 2-HG production assay; type: cell-based, human
IDH1(R132H)-86b = assay: SplitLuc CETSA target engagement in HEK293T cells; type: cell-based; conditions: relative to 119
[1] = Mouse pharmacokinetic study; type: in vivo
[2] = test system: U87 mIDH1 (R132H) xenograft; assay: PK/PD in U87 R132H mIDH1 xenograft mouse model; type: in vivo; conditions: single 30 mg/kg p.o.
[3] = PK/PD in U87 R132H mIDH1 xenograft mouse model; type: in vivo; conditions: female, athymic nude (nu/nu NCr), mouse, in vivo, po, 30 mg/kg
WT IDH1 = WT IDH1 (Homo sapiens, UniProt O75874); assay: IDH1-WT selectivity assay; type: biochemical
WT IDH1, sequence (O75874 whole entry): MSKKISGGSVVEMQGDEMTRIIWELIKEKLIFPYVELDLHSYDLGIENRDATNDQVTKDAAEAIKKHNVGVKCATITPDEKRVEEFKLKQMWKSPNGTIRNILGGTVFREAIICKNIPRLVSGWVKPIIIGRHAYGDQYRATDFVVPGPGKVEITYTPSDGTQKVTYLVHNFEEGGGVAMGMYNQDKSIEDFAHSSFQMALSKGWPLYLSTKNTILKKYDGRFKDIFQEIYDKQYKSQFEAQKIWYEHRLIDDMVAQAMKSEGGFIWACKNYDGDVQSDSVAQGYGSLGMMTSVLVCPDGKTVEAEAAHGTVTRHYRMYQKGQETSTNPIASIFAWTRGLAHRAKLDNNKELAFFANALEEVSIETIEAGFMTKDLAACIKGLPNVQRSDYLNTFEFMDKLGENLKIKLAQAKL

Kinetic solubility assay = type: physicochemical; conditions: phosphate buffer, pH 7.4
IDH1 R132H = IDH1 R132H (Homo sapiens, UniProt O75874, R132H); assay: diaphorase/resazurin-coupled mIDH1 R132H enzyme assay; type: biochemical; conditions: mIDH1 R132H, relative to 70
IDH1 R132H, sequence (O75874 whole entry R132H): as the sequence (O75874 whole entry) above, with R132H counted along it

[4] = Single time point rat liver microsome stability assay; type: in vitro ADME; conditions: rat liver microsomes, pH 7.4
[5] = Parallel artificial membrane permeability assay; type: in vitro ADME; conditions: PAMPA, pH 7.4, PAMPA (10^−6 cm/s)

Structure (SMILES): CCc1ccc(Cl)cc1-n1c(C=C(C)C)c(C(=O)N2CCNCC2)cc(-c2nc(-c3ccc(Cl)cc3)cs2)c1=O (single isomer, unassigned) [(+)-119]
- 2-HG levels lowered by (%) (U87-mIDH1 (R132H) cells; 100 nM, U87-mIDH1 (R132H) cells, 48 h): more than 94%
- pIC50 (U87-mIDH1 (R132H) cells; Homo sapiens, read-out: potency at reducing 2-HG in the cellular assay): > 9.15
- fold more potent than 119 in U87 2-HG assay (U87-mIDH1 (R132H) cells; relative to 119): 30 fold
- fold more potent than 119 in HEK293 engagement assay (IDH1(R132H)-86b): 13 fold
- brain AUC ([1]; CD1 mice, single 30 mg/kg oral dose): 6996 ng·h/g
- Kp ([1]; male, CD1, mouse, brain/plasma, po, 30 mg/kg): 0.28
- Cmax ([1]; male, CD1, mouse, plasma, po, 30 mg/kg): ~3340 nM
- average concentration in tumor at 48 h ([2]; 48 h, 30 mg/kg): 7 µM
- reduction in tumor 2-HG compared to AG-120 ([2]; from the 16 h time point onwards): greater reduction in tumor 2-HG

Structure (SMILES): N#Cc1ccnc(N2C(=O)CC[C@H]2C(=O)N(c2cncc(F)c2)[C@H](C(=O)NC2CC(F)(F)C2)c2ccccc2Cl)c1 [AG-120]
- concentration at 24 h [3]: 1600 nM
- concentration at 36 h [3]: 1400 nM
- concentration at 48 h [3]: 770 nM

Structure (SMILES): COc1ccc(OC)c(-n2c3c(cc(-c4nc(-c5ccc(Cl)cc5)cs4)c2=O)C(=O)CC(C)(C)C3)c1 [Compound 1, 3-(4-(4-Chlorophenyl)thiazol-2-yl)-1-(2,5-dimethoxyphenyl)-7,7-dimethyl-7,8-dihydroquinoline-2,5(1H,6H)-dione]
- off-target activity against WT IDH1 (WT IDH1): no readout interference and off-target activity against WT IDH1

Now from value to compound:

- solubility kinetic at 6 h (Kinetic solubility assay): < 1 µM
Structure (SMILES): CCc1cccc(CC)c1-n1c(C)c(C(=O)NC)cc(-c2nc(-c3ccc(Cl)cc3)cs2)c1=O [Compound 70, 5-(4-(4-Chlorophenyl)thiazol-2-yl)-1-(2,6-diethylphenyl)-N,2-dimethyl-6-oxo-1,6-dihydropyridine-3-carboxamide]

- fold improvement in potency compared to analog 70 (IDH1 R132H): 7 fold
- solubility kinetic at 6 h (Kinetic solubility assay): 6.7 µM (≈ 3.67 µg/mL)
Structure (SMILES): CCc1cccc(CC)c1-n1c(C)c(C(=O)N2CCNCC2)cc(-c2nc(-c3ccc(Cl)cc3)cs2)c1=O [Compound 87, 3-(4-(4-Chlorophenyl)thiazol-2-yl)-1-(2,6-diethylphenyl)-6-methyl-5-(piperazine-1-carbonyl)pyridin-2(1H)-one]

- solubility at 6 h (Kinetic solubility assay): < 1 µg/mL
- half-life at 1 μM [4]: 25 min
- Papp at 30 min, 0.05 mM [5]: 213 ×10⁻⁶ cm/s
Structure (SMILES): CCc1cccc(CC)c1-n1c(C=C(C)C)c(C(=O)N2CCNC(C)C2)cc(-c2nc(-c3ccc(Cl)cc3)cs2)c1=O (stereo not shown) [Compound 99, 3-(4-(4-Chlorophenyl)thiazol-2-yl)-1-(2,6-diethylphenyl)-5-(3-methylpiperazine-1-carbonyl)-6-(2-methylprop-1-en-1-yl)pyridin-2(1H)-one]
